{
  "source": "paper PMC8296708",
  "about": "“The pan HDAC inhibitor Givinostat improves muscle function and histological parameters in two Duchenne muscular dystrophy murine models expressing different haplotypes of the LTBP4 gene” (Skeletal Muscle, 2021)",
  "key": {"plasma miRNA of mdx mice": {"test_system": "plasma miRNA of mdx mice", "assay": "Whole-genome plasma miRNA expression profiling (small RNA sequencing) in mdx mice", "assay_type": "in vivo, mouse (C57BL/10ScSn-Dmd^mdx/J)", "details": "Givinostat 37.5 mg/kg vs vehicle", "description": "Blood samples were taken from the retro-orbital plexus of mice maintained under isoflurane anesthesia. Blood was placed in tubes containing 50 μL (for 1 mL of total blood) of EDTA ([…]) and then it was centrifuged at 13,300 rpm at + 4 °C for 10 min. Plasma was separated (400–500 μL) and immediately frozen in dry ice and stored at − 80 °C until analysis.\nThirteen mouse plasma samples (naive wt, n = 3; naive mdx, n = 3; vehicle, n = 4; Givinostat 37.5 mg/kg, n = 3) were delivered to Biogazelle in dry ice.\nRNA was isolated using the miRNeasy Serum/Plasma Kit (Qiagen) following the manufacturer’s instructions.\nLibraries for small RNA sequencing were prepared using the NEBNext small RNA library prep kit (New England Biolabs) according to the manufacturer’s instructions. […] Finally, the resulting small RNA pools were concentrated via ethanol precipitation and quantified using the Qubit 2.0 fluorometer (Thermo Fisher Scientific) prior to sequencing with read length of 75 bp on a NextSeq 500 sequencer (Illumina).\nSequencing reads were filtered based on stringent read quality control. After adapter trimming with Trimmomatic, reads were collapsed and mapped to the reference genome (GRCm38) using Bowtie. Reads up to 25 nucleotides are mapped with no mismatches, while longer reads (mainly from RNA species other than miRNAs) are mapped allowing a maximum of 2 mismatches. […]"}, "mdx mice": {"test_system": "mdx mice", "assay": "Grip strength test (maximal normalized strength, FNmax) in mdx mice", "assay_type": "in vivo, mouse (C57BL/10ScSn-Dmd^mdx/J)", "excerpt": "For the efficacy studies, C57BL/10 J (Stock No: 000665) wild type (wt) and C57BL/10ScSn-Dmd^mdx/J (Stock No: 001801) 7–8-week-old male mice, DBA/2J wt (Stock No: 000671), and D2.B10-Dmd^mdx/J (Stock No: 013141) 6–7-week-old male mice were purchased from The Jackson Laboratories (Bar Harbor, Maine, USA). After 5 days of acclimatization in the animal facility, mice were randomized into different treatment groups based on their BW. C57BL/10J wt mice were assigned to the naive wt group (healthy mice that received no treatment, but were subjected to functional tests), whereas mdx mice were assigned to the following groups (9 mice/group; 4–5 mice/cage): naive mdx (mice that received no treatment, but were subjected to functional tests), vehicle (0.5% methylcellulose, p.o.), and Givinostat (0.1, 0.3, 1, 5, 10, 25, and 37.5 mg/kg, p.o.). DBA/2J mice were assigned to the naive wt group (healthy mice that received no treatment, but were subjected to functional tests), whereas D2.B10 mice were assigned to the following groups (12–13 mice/group; 4–5 mice/gage): vehicle (filtered tap water, p.o.), Givinostat (1, 5, 10, and 37.5 mg/kg, p.o.), prednisone 1 mg/kg, and Deflazacort 1 mg/kg (i.p.).\nIn the efficacy studies, Givinostat powder (ITF2357) was suspended in 0.5% methylcellulose (Sigma-Aldrich) and administered p.o. (by gavage) at the doses of 0.1, 0.3, 1, 5, 10, 25, and 37.5 mg/kg qdx5x15weeks (administration volume per mouse: 10 mL/kg) in mdx mice (see Additional Figure 1A). Vehicle-treated mdx mice received 0.5% methylcellulose suspension. Givinostat suspension was stored at + 4 °C, and it was freshly prepared every 7 days. […] Water consumption was weekly monitored throughout the entire duration of the study weighing the bottle of each cage (maximum 4 mice per cage). […] All mice were monitored daily and tolerability was evaluated on the basis of BW and clinical signs.\nIn both efficacy studies, the effectiveness of treatments was evaluated every week by measuring the forelimb strength by a grip strength meter (Ugo Basile SRL, Italy). BW of mdx (see Additional Figure 2) and D2.B10 mice (see Additional Figure 3) was also measured in order to normalize the absolute grip strength of each mouse with respect to its BW. […] The highest recorded value of maximal normalized strength (FNmax) obtained for each mouse at all the time points (from T0 to T15) was used for further analysis.\nAfter taking baseline readings for behavioral assays (FNmax and distance run by the animals), mice were re-randomized based on these two parameters, also considering the previous randomization performed on their BW. […]"}},
  "data": [
    {"smiles": "CCN(CC)Cc1ccc2cc(COC(=O)Nc3ccc(C(=O)NO)cc3)ccc2c1", "note": "[Givinostat]", "values": [
      {"measurement": "miR-92b-3p in plasma, FC", "setting": "plasma miRNA of mdx mice; T16, significant upregulation", "value": 2.130},
      {"measurement": "miR-449a-5p in plasma, FC", "setting": "plasma miRNA of mdx mice; T16, significantly upregulated", "value": 4.388},
      {"measurement": "FNmax level on treatment day 49", "setting": "mdx mice; 37.5 mg/kg p.o., transient", "value": "comparable to that of wt healthy mice"},
      {"measurement": "Effect on maximal normalized strength (FNmax)", "setting": "mdx mice; 0.1-37.5 mg/kg p.o. qdx5x15weeks", "value": "remarkable, dose-dependent increase of the FNmax"},
      {"measurement": "Dose of maximal efficacy on FNmax", "setting": "mdx mice; p.o. qdx5x15weeks", "value": 37.5, "unit": "mg/kg"},
      {"measurement": "Persistence of beneficial effect on FNmax", "setting": "mdx mice; vs vehicle", "value": "remained significant up to day 105"}
    ]}
  ]
}
